Laboratory results as given in patent US5571799A, “(2'-5') oligoadenylate analogues useful as inhibitors of host-v5.-graft response” (Basco, Ltd., priority 1994, dated 1996).
Entries after “also recorded” stand apart in the source; their conditions may differ.

Experiments:
[1] = test system: snake venom phosphodiesterase; assay: Stability to the action of snake venom phosphodiesterase; format: in vitro ADME
Method: Determination of (2'-5')oligoadenylates and analogues stability to the action of snake venom phosphodiesterase
Upon entering an organism 2'-5'A3 and the analogues are quickly hydrolyzed to monomeric compound(s). Prior to administration of 2'-5'A3 analogues in vivo to animal, it was considered necessary to determine their stability towards snake venom phosphodiesterase in comparison to the parent 2'-5'A3.
The solution of 3 μg of the snake venom phosphodiesterase (Boehringer Mannheim cat. No. 108260) in 30 μl of 0.1 M Tris HCl buffer, containing 0.002 M MgCl2 (pH 8.78) is added to the solution of 4-5·10^-7 M trimer in 100 μl of the same buffer. The solution was left standing at 20° C. At regular intervals, 10 μl samples were taken, heated at 90° C. for 1 minute and preparative thin layer chromatography was performed on the Silufole™ plates, using a 7:1:2 mixture of isopropanol:aqueous ammonia:water.
The spot, corresponding to the initial trimer, was cut out, the substance was extracted with 2 ml of 0.5% solution of the dodecylsulfate sodium salt solution for 2 hours, and the optical density of the solution was determined at 260 nm.

[2] = test system: T-lymphocytes (murine splenocytes) stimulated with Concanavalin A; assay: In vitro blast-transformation of murine lymphocytes, Con A (T-lymphocyte mitogen), [3H]-thymidine; format: cell-based, mouse (CBA); conditions: Con A 5 μg/ml; 5 × 10^-6 M; control 22,296
Description: (§1) The immune reactions in an organism begins with the division of lymphocytes. In vitro investigation of the lymphocyte blast-transformationreaction under the influence of mitogens makes it possible to use this model system to select chemically synthesized 2'-5'A3 analogues which suppress division of lymphocytes. Using Concanavalin A and lipopolysaccharide as mitogens, the effect of analogues on the division of T- and β-lymphocytes may be investigated.
CBA mice 8-10 weeks old were used for these experiments. A suspension of mouse splenocytes were obtained by gently teasing spleens with forceps. […] Cultures were maintained in 5% CO2 at 37° C. One μCi of ^3 H-thymidine (Isotop®) was added to each well 4 hours before the end of the incubation period. Incorporation of ^3 H-thymidine into cellular DNA was determined by liquid scintillation counting using standard techniques. Oligoadenylate was added to the medium at the beginning of culturing to achieve the final concentration.
(§2) (Con A being a mitogen for T-lymphocytes and LPS being a mitogen for β-lymphocytes).

[3] = test system: β-lymphocytes (murine splenocytes) stimulated with lipopolysaccharide; assay: In vitro blast-transformation of murine lymphocytes, LPS (β-lymphocyte mitogen), [3H]-thymidine; format: cell-based, mouse (CBA); conditions: LPS 0.1 μg/ml; 5 × 10^-6 M; control 27,133
Description: as §1
CBA mice 8-10 weeks old were used for these experiments. A suspension of mouse splenocytes were obtained by gently teasing spleens with forceps. Lymphocytes cultivated in flat-bottomed 96-well plates (Linbro) in RPMI-1640 medium (Flow Lab.) were supplemented with 2 mM 1-glutamine, 10 μg/ml gentamicin, 10^-5 M 2-mercaptoethanol and 10% heat inactivated fetal calf serum (Flow Lab). Cultures were maintained in 5% CO2 at 37° C. One μCi of ^3 H-thymidine (Isotop®) was added to each well 4 hours before the end of the incubation period. Incorporation of ^3 H-thymidine into cellular DNA was determined by liquid scintillation counting using standard techniques. Oligoadenylate was added to the medium at the beginning of culturing to achieve the final concentration.
as §2

T-helpers = assay: Immune system of monkeys: T-helpers, flow cytofluorografic analysis; format: in vivo, Macaque Rh. monkeys
Method: (§3) The experiments were performed on 4 year-old Macaque Rh. monkeys. The levels of the principal subpopulations of T-lymphocytes, IgA, IgG, IgM and the amount of α- and γ-interferon and interleukin II after administration (2'-5')olygoadenylate and its analogies at the concentration of 50 and 25 μg/kg of the body weight was investigated.
(§4) FLOW CYTOFLUOROGRAFIC ANALYSIS OF LYMPHOCYTE SUBSETS
(§5) Blood samples (100 μl of whole blood) were placed into a 12×17 tube. To these cells 20 μl of purified monoclonal antibodies were added with specificity for human cytotoxic/suppressor cells anti-Leu-2a (CD8), human helper/inducer anti-Leu-3a (CD4) and FITC conjugated monoclonal antibodies with specificity for natural killer cells-anti-Leu11c (CD16) (Becton Dickinson, San Jose). After 30 minutes incubation on ice, the cells were washed once and 20 μl of goat-antimouse chain phycoerythrin (Sigma P1286) conjugate were added to the tube with anti-Leu-2a and anti-Leu-3a monoclonal antibodies.
(§6) After erythrocyte lysing with FACS lysing solution (Becton Dickinson, San Jose) the cells were analyzed on FACScan flow cytometer (Becton Dickinson, San Jose) with scatter gate set on lymphocyte fraction.

T-suppressors = assay: Immune system of monkeys: T-suppressors, flow cytofluorografic analysis; format: in vivo, Macaque Rh. monkeys
Method: as §3, with “Immunosuppressive activity of the prototype 2'-5'A3 and two analogues (2'-5')A2 Ar-epoxy and (2'-5')A2 A^l-epoxy were investigated in monkeys. The experiments” for “The experiments”
as §4, §5, §6

T-killers and T-helpers = assay: Immunosuppressive activity in vivo in monkeys; design: species or system Macaque Rh. monkeys; conditions: monkeys, IV, disodium salt
Method: as §3, §4, §5, §6

[4] = test system: Type I and II herpes virus; conditions: cited from earlier work

Adenylyl (2'-5')adenylyl (2'-5')-9-(2,3-anhydro-β-D-lyxofuranosyl) adenine disodium salt [(2'-5')A2 A^l-epoxy]
T 1/2 (time for optical density of initial trimer to decrease by 50%) ([1]; 20° C., 0.1 M Tris HCl, 0.002 M MgCl2, pH 8.78): 10.5 h
stability / resistance to phosphodiesterase ([1]; in words): significantly more resistant towards hydrolysis by phosphodiesterase
DNA synthesis at [^3 H]-thymidine [incorporated counts/min.] [2]: 15,749 counts/min.
DNA synthesis at [^3 H]-thymidine [incorporated counts/min.] [3]: 10,828 counts/min.
T-helpers (T-helpers; Table 8, single IV 25 μg/kg, day 2, control (day before) 26.2): 27%
T-helpers (T-helpers; Table 8, single IV 25 μg/kg, day 4, control (day before) 26.2): 25.3%
T-helpers (T-helpers; Table 9, single IV 50 μg/kg, day 2, control (day before) 22): 20.5%
T-helpers (T-helpers; Table 9, single IV 50 μg/kg, day 4, control (day before) 22): 18.4%
T-suppressors (T-suppressors; Table 8, single IV 25 μg/kg, day 2, control (day before) 53.1): 44%
T-suppressors (T-suppressors; Table 8, single IV 25 μg/kg, day 4, control (day before) 53.1): 43.4%
T-suppressors (T-suppressors; Table 9, single IV 50 μg/kg, day 2, control (day before) 42): 44%
T-suppressors (T-suppressors; Table 9, single IV 50 μg/kg, day 4, control (day before) 42): 43.4%
immunosuppressive activity, in words (T-killers and T-helpers): considerably lower than that exhibited by (2'-5')A2 Ar-epoxy; also recorded: exhibit immunosuppressive activity in the in vivo experiments
immunosuppressive activity, in words (T-killers and T-helpers; listed as (2 -5')A2 A^l-epoxy): strong immunosuppressive activity specifically against T-killers and T-helpers
activity against Type I and II herpes virus, in words [4]: active against the Type I and II herpes virus
